From the supplement of paper PMC10326909

Assay: ESI positive response factor (isotope-corrected peak area per molar concentration) in SFC/ESI/HRMS (area units per M); higher = higher ionization efficiency
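Also: standards in acetonitrile/water run in triplicate on a zwitterionic HILIC column, CO2–methanol gradient containing 20 mmol/L ammonium acetate, postcolumn makeup flow, Orbitrap full-scan detection.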

| Compound | ESI positive response factor (0.0175 µM) | ESI positive response factor (0.035 µM) | ESI positive response factor (0.0875 µM) | ESI positive response factor (0.175 µM) | ESI positive response factor (0.35 µM) | ESI positive response factor (0.875 µM) | ESI positive response factor (1.75 µM) |
| --- | --- | --- | --- | --- | --- | --- | --- |
| CC(CCl)OP(=O)(OC(C)CCl)OC(C)CCl (stereo not given) [TCPP] | 1.59e+18 | 1.21e+18 | 1.02e+18 | 8.34e+17 | 7.91e+17 |  |  |
| O=P(OC(CCl)CCl)(OC(CCl)CCl)OC(CCl)CCl [TDCPP] | 4.09e+17 | 4.02e+17 | 3.57e+17 |  |  |  |  |
| C[C@]12CC[C@H]3[C@@H](CCC4=CC(=O)CC[C@@]43C)[C@@H]1CC[C@@H]2O [Testosteron] | 2.27e+17 | 2.44e+17 | 2.22e+17 |  |  |  |  |
| NCC1CCC(C(=O)O)CC1 (stereo not given) [Tranexamic acid] |  | 9.61e+16 | 6.97e+16 | 5.79e+16 | 6.32e+16 | 6.01e+16 |  |
| OCCN(CCO)CCO [Triethanolamine] | 8.84e+16 | 8.88e+16 | 8.78e+16 | 8.76e+16 | 8.66e+16 |  |  |
| COCCOCCOCCO [Triethylene glycol monomethyl ether] | 8.19e+16 | 9.98e+16 | 8.29e+16 | 7.97e+16 |  |  |  |
| COc1cc(Cc2cnc(N)nc2N)cc(OC)c1OC [Trimethoprim] | 2.88e+17 | 3.52e+17 | 3.58e+17 | 3.13e+17 | 3.46e+17 | 3.33e+17 |  |
| O=P(OCCCl)(OCCCl)OCCCl [Tris(2-chloroethyl) phosphate] | 2.68e+18 | 2.89e+18 | 2.72e+18 |  |  |  |  |
| CCCCC(=O)N(Cc1ccc(-c2ccccc2-c2nn[nH]n2)cc1)C(C(=O)O)C(C)C (stereo not given) [Valsartan] | 2.86e+16 | 5.36e+16 | 5.55e+16 | 5.75e+16 | 6.09e+16 | 6.04e+16 | 5.94e+16 |
| C=CC(=O)OCC[N+](C)(C)C [[2-(Acryloyloxy)ethyl]trimethylammonium] |  | 8.46e+16 | 6.97e+16 | 5.79e+16 | 6.32e+16 | 6.01e+16 |  |
| CC(O)CN(CC(C)O)CC(C)O (stereo not given) [triisopropanolamine] |  | 1.75e+17 | 2.93e+17 | 3.36e+17 | 3.51e+17 |  |  |
